Source: US10314809B2, “Application of derivative of clostridium ghonii” (SHANDONG XINCHUANG BIOTECHNOLOGY CO., LTD., priority 2014, dated 2019)

Tested on: non-small cell lung carcinoma A549 cells
Experiment: Example 2: in-vivo test of spores combined with chemotherapy medicines in A549 tumor-bearing nude mice
Set-up: species or system Balb/c-nu/nu nude mice
Experimental: The non-small cell lung carcinoma A549 cells were injected into the subcutaneous positions at femoral lateral parts of right backs of female Balb/c-nu/nu nude mice (5 weeks old, 20 g) by subcutaneous injection. The in-vivo test was performed when the tumor volume was 300 mm^3.
Control group: n=15, and 0.2 ml of PBS buffer was intravenously injected to the tails;
Docetaxel group: n=15, Docetaxel was intravenously injected to the tails on the 4th day and 11th day, the dose was 20 mg/(kg·body weight), and the application dose of Docetaxel was the optimal application dose.
MW-DCG-HNCv-18 spore group: n=15, spores were intravenously injected to the tails, and the dose was 3×10^8/(kg·body weight).
(§1) MW-DCG-HNCv-18 spore+Cetuximab group: n=15, MW-DCG-HNCv-18 spores were intravenously injected to the tails on the first day, and the dose was 3×10^8/(kg·body weight); Cetuximab was intravenously injected to the tails on the 4th day and 11th day, the dose was 70 mg/(kg·body weight), and the application dose of Cetuximab was the optimal application dose.
as §1, with “weight); Adriacin” for “weight); Cetuximab”, “was 10” for “was 70”, “of Adriacin” for “of Cetuximab”
MW-DCG-HNCv-18 spore+Docetaxel group: n=15, MW-DCG-HNCv-18 spores were intravenously injected to the tails on the first day, and the dose was 3×10^8/(kg·body weight); Docetaxel was intravenously injected to the tails on the 4th day and 11th day, and the dose was 20 mg/(kg·body weight).
C. novyi-NT spore+Docetaxel group: n=15, C. novyi-NT spores were intravenously injected to the tails on the first day, and the dose was 3×10^8/(kg·body weight);
Docetaxel was intravenously injected to the tails on the 4th day and 11th day, and the dose was 20 mg/(kg·body weight).
The major diameter (a) and transverse diameter (b) of the transplanted tumors of the nude mice were measured with a vernier caliper, 3 to 4 times a week, the tumor volume of each group was calculated, and the anti-tumor effects of the strains were observed dynamically. At the same time, the body weight, feeding, drinking, mental state, behavior, fur color, excretion and death situations of the tumor-bearing mice were observed and recorded.
The tumor volume (V=½×a×b^2) was calculated according to the measured major diameter and transverse diameter data of the tumors, the curve was drawn and the tumors were observed dynamically. […]
The overall survival time of the tumor-bearing mice: the nude mice in each group after processing were fed until natural death, and the survival time was calculated.

[1] = spores 3×10^8/(kg·body weight) i.v. day 1, drug i.v. 4th and 11th day (Docetaxel 20, Cetuximab 70, Adriacin 10 mg/kg)

Q: With `CC(=O)O[C@@]12CO[C@@H]1C[C@H](O)[C@@]1(C)C(=O)[C@H](O)C3=C(C)[C@@H](OC(=O)[C@H](O)[C@@H](NC(=O)OC(C)(C)C)c4ccccc4)C[C@@](O)([C@@H](OC(=O)c4ccccc4)[C@H]21)C3(C)C` [Docetaxel] as the molecule, how does the Cure rate (animals with tumor completely removed/total, spores 3×10^8/kg day 1, drug i.v. 4th and 11th day) read?
A: 0%

Q: And the Necrosis rate [1]?
A: 22.2%

Q: What about the Tumor inhibition rate [1] of the same molecule?
A: 55.9%

Q: What about the mean survival days (spores 3×10^8/kg day 1, drug i.v. 4th and 11th day, fed until natural death) of the same molecule?
A: 35.5 days
